Square brackets hold non-standard residues; d marks the D form. Peptide text beside a SMILES is read from it. * marks the point of attachment. X1 = CC(=O)N[C@@H]1[C@@H](O[C@@H]2O[C@H](CO)[C@H](O)[C@H](O)[C@H]2O)[C@@H](O)[C@@H](CO[C@@H]2O[C@H](CO)[C@@H](O[C@@H]3O[C@H](CO)[C@H](O)[C@H](O[C@]4(C(=O)O)C[C@H](O)[C@@H](NC(C)=O)[C@H]([C@H](O)[C@H](O)CO)O4)[C@H]3O)[C@H](O[C@@H]3O[C@@H](C)[C@@H](O)[C@@H](O)[C@@H]3O)[C@H]2NC(C)=O)O[C@@H]1*; Phe(4-CH2SO3H) = N[C@@H](Cc1ccc(CS(=O)(=O)O)cc1)C(=O)O; Mca = COc1ccc2c(CC(=O)*)cc(=O)oc2c1
What was measured:
[1] = target: T1, Recombinant mouse P-selectin Fc chimera (Mus musculus, UniProt Q01102); assay: Flow cytometry, inhibition of mouse P-selectin Fc chimera binding to murine neutrophils; type: cell-based; conditions: murine PMN; chimera 2 μg/mL; read-out: IC50, P-selectin dependent interactions, murine PMN
T1 sequence (Q01102 42-768): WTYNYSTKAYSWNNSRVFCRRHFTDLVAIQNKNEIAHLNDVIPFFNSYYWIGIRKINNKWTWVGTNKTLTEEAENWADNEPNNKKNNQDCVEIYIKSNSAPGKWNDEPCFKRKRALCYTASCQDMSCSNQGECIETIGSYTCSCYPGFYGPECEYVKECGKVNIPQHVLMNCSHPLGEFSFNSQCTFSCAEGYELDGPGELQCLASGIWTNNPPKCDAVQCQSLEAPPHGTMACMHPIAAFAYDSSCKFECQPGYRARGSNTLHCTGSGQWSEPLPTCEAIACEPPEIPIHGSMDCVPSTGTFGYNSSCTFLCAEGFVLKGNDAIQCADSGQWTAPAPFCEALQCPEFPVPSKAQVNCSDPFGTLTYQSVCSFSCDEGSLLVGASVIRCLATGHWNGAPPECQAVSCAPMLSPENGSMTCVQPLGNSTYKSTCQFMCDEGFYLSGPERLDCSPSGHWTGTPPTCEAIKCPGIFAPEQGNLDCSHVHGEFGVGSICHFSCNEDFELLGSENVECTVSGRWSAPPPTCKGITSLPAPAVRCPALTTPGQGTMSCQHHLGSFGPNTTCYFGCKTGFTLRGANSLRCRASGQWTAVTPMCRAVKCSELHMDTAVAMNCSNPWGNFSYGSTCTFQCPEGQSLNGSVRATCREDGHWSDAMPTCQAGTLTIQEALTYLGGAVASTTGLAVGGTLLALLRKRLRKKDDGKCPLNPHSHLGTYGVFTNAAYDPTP
Procedure: (§1) Flow cytometry was used to characterize the ability of GSnP-6 to block binding of selectin-IgG chimeras to murine and human leukocytes. Recombinant mouse P- or L-selectin Fc chimera (2 μg/mL) was incubated with murine neutrophils and GSnP-6 (0-30 μM). Likewise, recombinant human P-selectin or L-selectin Fc chimera were incubated with human peripheral blood neutrophils and monocytes, as well as the human U937 cell line in the presence of GSnP-6 (0-30 μM). Binding of selectin-IgG chimeras was detected with PE-conjugated anti-IgG antibody, quantified as mean fluorescent intensity, and plotted as percent inhibition. Specificity was confirmed with selectin-specific blocking antibodies.

[2] = test system: P-selectin (recombinant Ig chimera); assay: Microarray binding screen of glycopeptide mimics, P-selectin; parameters: species or system human and mouse; conditions: selectin Ig chimeras 5-20 μg/mL, Alexa-488 anti-human IgG
Procedure: Bound peptides were detected using Alexa-488 labeled anti-human IgG antibody (5 μg/mL). Three lectins RCA-1, AAL, and PNA were used to confirm the sequence of enzymatic steps. Monoclonal antibodies CHO131, PSG2 antibody and PL-1 were used to confirm the presence of SLex, tyrosine sulfates, and the peptide sequence, respectively. Biacore binding analysis to human P-selectin with observed rate constants for (D) GSnP-6, kon 3.1×10^5 M^−1s^−1, koff 6.9×10^3 M^−1s^−; GSn2P-6, kon6.4×10^5 M^−1s^−1, koff 6.8×10^3 M^−1s. Biacore binding analysis to mouse P-selectin with observed rate constants for (E) GsnP-6, kon 4.9×10^4 M^−1s^−1, koff 8.0×10^3 M^−1s^−; GSn2P-6 kon 5.3×10^4 M^−1s^−1, koff 9.0×10^3 M^−1s. (F) Temperature- and pH-dependent stability studies of GSnP-6.
Binding affinities of PSGL-1 mimics towards selectins was initially screened using a microarray in which glycosulfopeptides and glycan standards (Sialyl Le^x, NA2, NA2,3, NA2,6 and LNnT) were printed on a NHS-activated glass slide. The slide was then incubated with recombinant Ig chimeras of P-, L-, or E-selectin (5-20 μg/mL) followed by Alexa-488 labeled anti-human IgG antibody (5 μg/mL). […] Binding of glycopeptides mimics to selectins was […] dependent and inhibited by EDTA.

[3] = target: T2, Recombinant mouse L-selectin Fc chimera (Mus musculus, UniProt P18337); assay: Flow cytometry, inhibition of mouse L-selectin Fc chimera binding to murine neutrophils; type: cell-based; conditions: chimera 2 μg/mL, read-out: IC50, PSGL-1/L-selectin interactions, murine neutrophils
T2 sequence (P18337 39-372): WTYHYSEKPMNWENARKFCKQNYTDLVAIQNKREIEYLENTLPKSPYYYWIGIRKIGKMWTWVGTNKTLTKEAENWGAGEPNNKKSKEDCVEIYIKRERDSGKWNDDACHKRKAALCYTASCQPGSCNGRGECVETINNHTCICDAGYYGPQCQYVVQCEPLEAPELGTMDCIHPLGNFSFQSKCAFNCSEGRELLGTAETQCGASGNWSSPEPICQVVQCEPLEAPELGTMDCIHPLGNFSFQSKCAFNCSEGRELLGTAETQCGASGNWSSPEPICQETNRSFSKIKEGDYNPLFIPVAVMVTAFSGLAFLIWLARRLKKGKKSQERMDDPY
Procedure: as §1

**Q.** For `COc1ccc2c(CC(=O)NCCCC[C@H](N)C(=O)N[C@@H](CCC(=O)O)C(=O)N[C@@H](Cc3ccc(CS(=O)(=O)O)cc3)C(=O)N[C@@H](CCC(=O)O)C(=O)N[C@@H](Cc3ccc(CS(=O)(=O)O)cc3)C(=O)N[C@@H](CC(C)C)C(=O)N[C@@H](CC(=O)O)C(=O)N[C@@H](Cc3ccc(CS(=O)(=O)O)cc3)C(=O)N[C@@H](CC(=O)O)C(=O)N[C@@H](Cc3ccccc3)C(=O)N[C@@H](CC(C)C)C(=O)N3CCC[C@H]3C(=O)N[C@@H](CCC(=O)O)C(=O)N[C@H](C(=O)N[C@@H](CCC(=O)O)C(=O)N3CCC[C@H]3C(=O)N[C@@H](CC(C)C)C(=O)O)[C@@H](C)O[C@H]3O[C@H](CO[C@@H]4O[C@H](CO)[C@@H](O[C@@H]5O[C@H](CO)[C@H](O)[C@H](O[C@]6(C(=O)O)C[C@H](O)[C@@H](NC(C)=O)[C@H]([C@H](O)[C@H](O)CO)O6)[C@H]5O)[C@H](O[C@@H]5O[C@@H](C)[C@@H](O)[C@@H](O)[C@@H]5O)[C@H]4NC(C)=O)[C@H](O)[C@H](O[C@@H]4O[C@H](CO)[C@H](O)[C@H](O)[C@H]4O)[C@H]3NC(C)=O)cc(=O)oc2c1` [GSnP-6] (H-K(Mca)E[Phe(4-CH2SO3H)]E[Phe(4-CH2SO3H)]LD[Phe(4-CH2SO3H)]DFLPET(X1)EPL-OH), which IC50 [1] is on record?
**A.** ~15 µM

**Q.** And the “binding to P-selectin compared with E- or L-selectin” value [2]?
**A.** bound to P-selectin more strongly than to E- or L-selectin

**Q.** What about the IC50 [3] of the same compound?
**A.** > 50 µM

From patent US10253071B2, “Selectin inhibitors, composition, and uses related thereto” (Beth Israel Deaconess Medical Center, Inc., priority 2014, dated 2019)
